The series concerns the target ATP-dependent translocase ABCB1 (Homo sapiens, UniProt P08183). Kind of series: TP_TRANSPORTER: transepithelial transport in Caco-2 cells. It counts as functional, cell-based. (Caco-2 monolayers are a common model of the intestinal barrier.)
Chain of ATP-dependent translocase ABCB1 (P08183 whole entry): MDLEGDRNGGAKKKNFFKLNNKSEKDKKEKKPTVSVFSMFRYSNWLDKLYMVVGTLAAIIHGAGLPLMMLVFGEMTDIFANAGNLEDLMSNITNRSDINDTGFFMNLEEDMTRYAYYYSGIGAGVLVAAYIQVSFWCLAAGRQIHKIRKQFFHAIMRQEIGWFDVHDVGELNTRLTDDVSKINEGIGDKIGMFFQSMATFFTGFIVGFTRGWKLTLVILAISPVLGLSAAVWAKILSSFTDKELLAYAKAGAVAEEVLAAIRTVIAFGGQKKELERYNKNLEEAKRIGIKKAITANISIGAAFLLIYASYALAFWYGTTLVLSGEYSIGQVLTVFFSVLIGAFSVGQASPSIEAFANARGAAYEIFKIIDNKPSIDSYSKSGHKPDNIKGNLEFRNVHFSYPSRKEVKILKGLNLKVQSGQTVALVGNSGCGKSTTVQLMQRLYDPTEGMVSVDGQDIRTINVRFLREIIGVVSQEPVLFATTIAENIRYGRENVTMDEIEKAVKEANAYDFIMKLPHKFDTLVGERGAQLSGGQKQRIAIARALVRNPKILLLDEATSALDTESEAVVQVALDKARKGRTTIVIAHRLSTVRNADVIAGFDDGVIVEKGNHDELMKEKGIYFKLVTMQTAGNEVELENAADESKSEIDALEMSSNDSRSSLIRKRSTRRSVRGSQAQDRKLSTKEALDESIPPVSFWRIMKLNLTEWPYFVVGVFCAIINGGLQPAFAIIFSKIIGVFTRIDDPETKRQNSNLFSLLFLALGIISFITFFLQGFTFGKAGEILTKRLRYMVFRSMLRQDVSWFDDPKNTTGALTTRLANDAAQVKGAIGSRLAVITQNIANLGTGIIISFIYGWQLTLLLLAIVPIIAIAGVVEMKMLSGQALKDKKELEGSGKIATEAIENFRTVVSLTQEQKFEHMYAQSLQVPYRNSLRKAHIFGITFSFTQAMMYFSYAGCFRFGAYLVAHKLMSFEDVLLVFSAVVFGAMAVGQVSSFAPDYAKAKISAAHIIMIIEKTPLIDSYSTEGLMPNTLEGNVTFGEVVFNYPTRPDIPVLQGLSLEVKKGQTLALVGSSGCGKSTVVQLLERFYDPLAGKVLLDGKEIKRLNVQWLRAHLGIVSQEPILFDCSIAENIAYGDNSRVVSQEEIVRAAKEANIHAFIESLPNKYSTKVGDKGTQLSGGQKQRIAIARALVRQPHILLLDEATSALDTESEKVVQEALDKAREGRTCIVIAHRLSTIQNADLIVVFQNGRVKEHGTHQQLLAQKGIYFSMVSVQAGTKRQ
`CS(=O)(=O)O.O=C(CCCN1CCC(=C(c2ccc(F)cc2)c2ccc(F)cc2)CC1)N1CCCC1`: the Activity entry was “substrate [+]”.
The same measure for `O=C(O)/C=C/C(=O)O.O=C1CCCN1CCCCN1CCN(c2cc(C(F)(F)F)ccn2)CC1`: “substrate [+]”; for `CC1(C)CC(=O)N(CCCCN2CCN(c3ncccn3)CC2)C(=O)C1O.Cl` (configuration not stated): “substrate [+]”; for `CN1CCC(=C(c2ccc(F)cc2)c2cc(Cl)cs2)CC1`: “substrate [+]”.
With `Cl.FC(F)(F)c1ccc(N2CCNCC2)nc1Cl`, the Activity result was “substrate [+]”.
For the compound `COc1cc2cc(C3=NNC(=O)CC3C)sc2cc1OC` (configuration not stated), the Activity result was “is not a substrate [-]”.
`CN1CC2c3ccccc3Oc3ccc(Cl)cc3C2C1.O=C(O)/C=C\C(=O)O` (racemic) [ASENAPINE MALEATE]: the Activity result was “substrate [+]”.
As for `C=CCC(N)c1ccccc1-c1noc2ccccc12.Cl` (single isomer, unassigned; (-)), the Activity entry was “substrate [+]”.
The same measure for `CC(=O)Nc1ccc(O)cc1` [ACETAMINOPHEN]: “is not a substrate [-]”; for `CN(C)CCC=C1c2ccccc2CCc2ccccc21` [AMITRIPTYLINE]: “substrate [+]”; for `Cc1cc(=O)n(-c2ccccc2)n1C` [ANTIPYRINE]: “is not a substrate [-]”.
As for `CC(=O)Oc1ccccc1C(=O)O` [ASPIRIN], the entry is “is not a substrate [-]”; as for `NC(=O)N1c2ccccc2C=Cc2ccccc21` [CARBAMAZEPINE], “is not a substrate [-]”; as for `Clc1cccc(Cl)c1N=C1NCCN1` [CLONIDINE], “substrate [+]”.
For the compound `CC1(C)CC(=O)N(CCCCN2CCN(c3ncccn3)CC2)C(=O)C1.Cl` [GEPIRONE HYDROCHLORIDE], the Activity entry was “substrate [+]”.
With `CC(C)Cc1ccc(C(C)C(=O)O)cc1` (configuration not stated) [IBUPROFEN], the Activity result was “is not a substrate [-]”.
As for `COc1ccc2c(c1)c(CC(=O)O)c(C)n2C(=O)c1ccc(Cl)cc1` [INDOMETHACIN], the entry is “is not a substrate [-]”; as for `OC[C@@H](O)[C@@H](O)[C@H](O)[C@H](O)CO` [MANNITOL], “is not a substrate [-]”; as for `CNC(=C[N+](=O)[O-])NCCSCc1ccc(CN(C)C)o1` [RANITIDINE], “is not a substrate [-]”.
As for `Cc1nc2n(c(=O)c1CCN1CCC(c3noc4cc(F)ccc34)CC1)CCCC2` [RISPERIDONE], the entry is “substrate [+]”.
As to `O=C(O)c1ccccc1O` [SALICYLIC ACID], the Activity entry is “is not a substrate [-]”.
On to PEG 4000, for which the Activity result is “is not a substrate [-]”.
